According to PubChem BioAssay AID1134 (Emory University Molecular Libraries Screening Center, 2008):
pIC50: −log10 of the molar value.

Assays:
[1] = target: Ubiquitin carboxyl-terminal hydrolase BAP1 (Homo sapiens) (UniProt Q92560); experiment: BAP1 inhibitor potency and UCH-L1 selectivity, dose response, selectivity assay, biochemical, ubiquitin-rhodamine110-glycine substrate (AID 1134); conditions: recombinant BAP1, ubiquitin-rhodamine110 cleavage fluorescence kinetic
[2] = as above; conditions: recombinant BAP1, ubiquitin-rhodamine110 cleavage fluorescence kinetic; measured here: UCH-L1 counter-screen IC50

Chain of Ubiquitin carboxyl-terminal hydrolase BAP1 (Homo sapiens) (Q92560 whole entry, looked up): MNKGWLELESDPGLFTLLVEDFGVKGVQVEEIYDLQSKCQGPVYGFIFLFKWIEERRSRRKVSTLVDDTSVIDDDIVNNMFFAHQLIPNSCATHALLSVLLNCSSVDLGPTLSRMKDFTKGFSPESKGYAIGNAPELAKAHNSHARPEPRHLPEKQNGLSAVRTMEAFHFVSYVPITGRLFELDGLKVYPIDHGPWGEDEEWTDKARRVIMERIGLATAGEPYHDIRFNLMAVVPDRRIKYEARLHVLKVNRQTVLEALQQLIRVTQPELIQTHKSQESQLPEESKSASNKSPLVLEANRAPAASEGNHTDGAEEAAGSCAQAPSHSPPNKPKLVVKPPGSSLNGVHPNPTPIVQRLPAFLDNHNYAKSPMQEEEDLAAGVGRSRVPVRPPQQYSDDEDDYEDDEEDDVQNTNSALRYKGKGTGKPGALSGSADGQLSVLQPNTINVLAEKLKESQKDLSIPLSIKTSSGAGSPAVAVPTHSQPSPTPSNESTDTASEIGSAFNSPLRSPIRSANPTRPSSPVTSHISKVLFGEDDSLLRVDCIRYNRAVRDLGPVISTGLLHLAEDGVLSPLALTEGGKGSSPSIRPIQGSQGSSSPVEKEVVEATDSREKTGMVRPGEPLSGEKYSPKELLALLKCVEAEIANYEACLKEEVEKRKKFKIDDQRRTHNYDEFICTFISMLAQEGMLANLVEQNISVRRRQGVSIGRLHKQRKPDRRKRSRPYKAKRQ

Compound	pIC50 [1]	pIC50 [2]
Cc1sc(NC(=O)CSc2nnc(-c3ccc(O)cc3)o2)c(C#N)c1-c1ccc(CC(C)C)cc1	5.32	–
Cc1ccc(-c2c(C)sc(NC(=O)CSc3nnc(-c4ccc(F)cc4)o3)c2C#N)cc1C	5.40	4.58
Cc1sc(NC(=O)CSc2nnc(-c3ccc(Cl)cc3)o2)c(C(N)=O)c1-c1ccc(F)cc1	5.41	–
Cc1sc(NC(=O)CSc2nnc(-c3ccc(O)cc3)o2)c(C#N)c1-c1ccc(F)cc1	4.82	–
Cc1sc(NC(=O)CSc2nnc(-c3ccc(O)cc3)o2)c(C#N)c1-c1ccc(Cl)cc1Cl	5.43	–
Cc1sc(NC(=O)CSc2nnc(-c3ccncc3)o2)c(C#N)c1-c1ccc(F)cc1	5.06	–
Cc1sc(NC(=O)CSc2nnc(-c3ccc(Cl)cc3)o2)c(C#N)c1-c1ccc(F)cc1	6.09	4.67
Cc1sc(NC(=O)CSc2nnc(-c3ccc(Cl)cc3)o2)c(C#N)c1-c1ccccc1	5.73	4.86
CCOC(=O)c1cnc(SCC(=O)Nc2sc(C)c(C)c2C#N)nc1N	5.60	4.35
Cc1sc(NC(=O)CSc2nnc(-c3cccnc3)o2)c(C#N)c1-c1ccc(F)cc1	4.45	–
Cc1sc(NC(=O)CSc2n[nH]c(-c3ccc(O)cc3)n2)c(C#N)c1C	4.51	–
Cc1sc(NC(=O)CSc2nccc(-c3ccc(Cl)cc3)n2)c(C#N)c1-c1ccc(F)cc1	5.80	4.32
COC(=O)c1c(NC(=O)CSc2nnc(-c3ccc(Cl)cc3)o2)sc(C)c1-c1ccc(F)cc1	5.44	4.63
O=C(CSc1nnc(-c2ccc(O)cc2)o1)Nc1cc(-c2ccc(F)cc2)[nH]n1	4.84	–
Cc1sc(NC(=O)CSc2nnc(-c3ccc(Br)cc3)o2)c(C#N)c1-c1ccc(F)cc1	6.05	4.77
Cc1ccccc1Nc1nnc(SCC(=O)Nc2sc(C)c(-c3ccc(F)cc3)c2C#N)s1	5.06	–
Cc1ccccc1Nc1nnc(SCC(=O)NCc2ccco2)s1	4.76	–
Cc1ccc(-c2c(C)sc(NC(=O)CSc3nnc(-c4ccc(Cl)cc4)o3)c2C#N)cc1C	5.28	5.12

Continued by rising pIC50 [1], values first:

pIC50 [1]	pIC50 [2]	Compound
4.40	–	Cc1sc(NC(=O)CSc2nnc(-c3ccc(N)cc3)o2)c(C#N)c1-c1ccc(F)cc1
4.77	–	Cc1sc(NC(=O)CSc2nnc(N3CCOCC3)o2)c(C#N)c1-c1ccc(F)cc1
4.81	–	O=C(NCc1ccco1)c1cc2nc(-c3ccc4c(c3)OCO4)cc(C(F)(F)F)n2n1
5.21	–	Cc1sc(NC(=O)CSc2nnc(Cc3ccc(Cl)cc3)o2)c(C#N)c1-c1ccc(F)cc1
5.22	–	COC(=O)c1c(NC(=O)CSc2nnc(-c3ccc(O)cc3)o2)sc(C)c1-c1ccc(F)cc1
5.25	–	Cc1sc(NC(=O)CSc2nnc(-c3ccc(O)cc3O)o2)c(C#N)c1-c1ccc(F)cc1
5.32	–	Cc1sc(NC(=O)CSc2nccc(-c3ccc(Cl)cc3)n2)c(C#N)c1C
5.43	4.69	Cc1sc(NC(=O)CSc2nnc(-c3ccc(Cl)cc3)o2)c(C#N)c1-c1ccc(CC(C)C)cc1
5.55	4.87	Cc1sc(NC(=O)CSc2nnc(-c3ccc(Cl)nc3)o2)c(C#N)c1-c1ccc(F)cc1
5.56	< 4.00	Cc1sc(NC(=O)CSc2nnc(-c3ccc(I)cc3)o2)c(C#N)c1-c1ccc(F)cc1
5.66	4.99	Cc1sc(NC(=O)CSc2n[nH]c(-c3ccc(O)cc3)n2)c(C#N)c1-c1ccc(F)cc1
5.94	4.86	Cc1sc(NC(=O)CSc2nnc(-c3ccc(Cl)cc3)o2)c(C#N)c1-c1ccc(Cl)cc1Cl
6.07	4.28	O=C(CSc1nnc(-c2ccc(Cl)cc2)o1)Nc1cc(-c2ccc(F)cc2)[nH]n1
